Values quoted from earlier work, collected in US20110275602A1, “PHARMACEUTICAL ASSOCIATION, COMPOSITIONS FOR TOPICAL USE, FORMS OF DOSAGE AND METHOD OF TREATMENT OF ACUTE OR CHRONIC OTITIS IN PET ANIMALS” (priority 2007, published 2011).

Tested on: acute external otitis
Settings: humans; literature

O=C(O)c1cn(C2CC2)c2cc(N3CCNCC3)c(F)cc2c1=O [ciprofloxacin]
efficacy for the treatment of acute external otitis: 77%
